Assay results published in ChEMBL document CHEMBL1146448, “Cavernosolide, a New Sesterterpene from a Tyrrhenian Sponge” (J Nat Prod, 1997).
In brackets after ≈: the same amount, converted by molar mass.

Tests used:
[1] = Toxicity in Gambusia affinis; type: organism-based; conditions: in vivo
[2] = Toxicity in Artemia salina; type: organism-based; conditions: in vivo

CC(=O)O[C@H]1O[C@@H](C2=CC(=O)O[C@@H]2O)C[C@@H]2[C@@H]1CC[C@H]1[C@@]2(C)CC[C@H]2C(C)(C)CCC[C@]12C [CAVERNOSOLIDE] gave an LC50 [1] of 0.75 µg/mL (≈ 1.63 µM) and an LC50 [2] of 0.37 µg/mL (≈ 0.803 µM).
